As usually defined, the MIC is the lowest concentration that inhibits growth of the organism.

Assay [1] deals with Aspergillus niger ATCC 16404. Nature of the assay: MIC determination (broth micro-dilution). The format is cell-based. To be noted: ATCC16404. The procedure: (§1) Before analysis, compounds 5a–f were dissolved in 96% ethanol in a concentration of 2 mg/ml as stock solutions. Inoculums were prepared with fresh cultures of microbial strains, cultured on tryptic-soy agar or Sabouraud 2% (m/v) dextrose agar for 18 h (48–72 h for fungi) at 30 °C with physiological saline containing approximately […]. Inoculum density (0.5 McFarland units) was adjusted with a bio Mériex (France) densitometer. Minimum inhibitory concentration (MIC) was determined by the twofold micro-dilution method in Mu¨ller–Hinton broth for bacterial strains and RPMI 1640 + 2% m/v dextrose for fungi according to the EUCAST recommendations in a sterile 96-well flat-bottom plastic tissue culture plate. MIC was determined using a linear regression curve after incubation of compounds and reading the optical density at 570 nm using an iEMS microplate reader. […] All tests were performed in triplicate and expressed as the mean.

Assay [2] deals with Candida albicans ATCC 10231. Nature of the assay: MIC determination (broth micro-dilution). The format is cell-based. Particulars: ATCC10231. The procedure: as §1
(In general: In broth dilution the organism is exposed to a series of concentrations in liquid medium.)

For assay [3], the system named is Candida albicans ATCC 90028. Nature of the assay: MIC determination (broth micro-dilution). Particulars: ATCC90028. The format is cell-based. The procedure: as §1
In assay [4] the test system is Candida kefyr ATCC 2512. The assay is described as follows: MIC determination (broth micro-dilution). The format is cell-based. To be noted: Kluyveromyces marxianus, ATCC2512. The procedure: as §1
Assay [5] relates to Candida krusei ATCC 14243. The assay is described as follows: MIC determination (broth micro-dilution). The format is cell-based. Particulars: Pichia kudriavzevii, ATCC14243. The procedure:
as §1

The subject of assay [6] is Candida tropicalis ATCC 750. The assay is described as follows: MIC determination (broth micro-dilution). The format is cell-based. To be noted: ATCC750. The method, then:
as §1

Assay [7] deals with Issatchenkia orientalis Kudrjanzev ATCC 6258. Nature of the assay: MIC determination (broth micro-dilution). The format is cell-based. Particulars: Pichia kudriavzevii, ATCC6258. The method, then:
as §1

For assay [8], the system named is Candida albicans ATCC 10231. Nature of the assay: Minimum biofilm eradication assay. The format is cell-based. To be noted: ATCC10231, 48 h, read-out: MBEC. The method, then: (§2) We tested the susceptibility of different bacterial and yeast strains to compounds 5a–f by determining the minimum biofilm eradication concentration (MBEC). The test was performed in a sterile 96-well flat-bottom plastic tissue culture plate (TPP, Switzerland). Each well was filled with 100 µl of bacterial (10^7 CFUs/ml) or yeast (5 × 10^6 CFUs/ml) suspension. When the possibility of inhibition of yeast biofilm formation was tested, the wells were pre-treated with FBS (250 µl per well). Negative controls contained broth only. Positive controls were performed using standard antibacterial and antifungal drugs gentamycin and amphotericin B, respectively. The plates were covered and incubated aerobically for 24 h (bacteria) or 48 h (yeast) at 37 °C. Following the incubation period, each well was aspirated and washed three times with 250 µl of PBS and vigorously shaken in order to remove all non-adherent bacteria/yeast. The remaining attached cells were fixed with methanol (15 min) and the plates were left to dry overnight. The formed biofilm was stained with crystal violet (1%, 5 min). Excess stain was rinsed by placing the plate under running tap water and the plates were left to dry for 24 h. Adherent cells were resolubilized with acetic acid (33%, v/v). The optical density of each well was measured at 570 nm using a Multiscan plate reader. The MBEC value represents the lowest compound dilution at which microorganisms fail to grow.

The test system of assay [9] is Candida albicans ATCC 90028. The assay is described as follows: Minimum biofilm eradication assay. The format is cell-based. To be noted: ATCC90028, 48 h, read-out: MBEC. The method, then: as §2
The subject of assay [10] is Candida kefyr ATCC 2512. The assay is described as follows: Minimum biofilm eradication assay. The format is cell-based. To be noted: Kluyveromyces marxianus, ATCC2512, 48 h, read-out: MBEC. The procedure: as §2
Assay [11] has as its system Candida krusei ATCC 14243. Nature of the assay: Minimum biofilm eradication assay. The format is cell-based. To be noted: Pichia kudriavzevii, ATCC14243, 48 h, read-out: MBEC. The procedure: as §2
The subject of assay [12] is Candida tropicalis ATCC 750. The assay is described as follows: Minimum biofilm eradication assay. The format is cell-based. Particulars: ATCC750, 48 h, read-out: MBEC. The procedure:
as §2

A short description of assay [13]: Interaction with 1,1-diphenyl-2-picrylhydrazyl (DPPH). To be noted: 100 μΜ. The procedure:
To a solution of DPPH in absolute ethanol, an appropriate volume of the tested compound solution (0.1 mM final concentration) dissolved in DMSO was added. Absorbance was recorded at 517 nm after 20 and 60 min at room temperature (Lambda 20 double beam spectrophotometer, Perkin-Elmer, UK). Experiments were repeated at least in triplicate and the standard deviation of absorbance was less than 10% of the mean[10]. NDGA was used under the same experimental conditions as a reference compound.
(In general: Loss of DPPH colour is used to gauge radical scavenging.)

Assay [14] concerns Bacillus cereus ATCC 11778. Nature of the assay: MIC determination (broth micro-dilution). The format is cell-based. Particulars: ATCC11778. The method, then: as §1
Assay [15] deals with Bacillus subtilis ATCC 6633. The assay is described as follows: MIC determination (broth micro-dilution). The format is cell-based. Particulars: ATCC6633. The procedure:
as §1

Assay [16] relates to Burkholderia caepacia ATCC 25416. The assay is described as follows: MIC determination (broth micro-dilution). The format is cell-based. Particulars: ATCC25416. The method, then:
as §1

In assay [17] the test system is Candida parapsylosis ATCC 22019. Nature of the assay: MIC determination (broth micro-dilution). To be noted: ATCC22019. The format is cell-based. The procedure:
as §1

Assay [18] concerns Enterococcus faecalis ATCC 29212. The assay is described as follows: MIC determination (broth micro-dilution). The format is cell-based. Particulars: ATCC29212. The procedure: as §1
In assay [19] the test system is Enterococcus hyrae ATCC 8043. The assay is described as follows: MIC determination (broth micro-dilution). The format is cell-based. Particulars: ATCC8043. The method, then:
as §1

For assay [20], the system named is Escherichia coli ATCC 10536. Nature of the assay: MIC determination (broth micro-dilution). Particulars: ATCC10536. The format is cell-based. The procedure: as §1
Assay [21] deals with Escherichia coli ATCC 8739. The assay is described as follows: MIC determination (broth micro-dilution). The format is cell-based. Particulars: ATCC8739. The procedure: as §1
Assay [22] relates to Kocuria rhizophila ATCC 9341. Nature of the assay: MIC determination (broth micro-dilution). The format is cell-based. To be noted: ATCC9341. The method, then:
as §1

The subject of assay [23] is Pseudomonas aeruginosa ATCC 27853. The assay is described as follows: MIC determination (broth micro-dilution). To be noted: ATCC27853. The format is cell-based. The method, then:
as §1

Assay [24] has as its system Pseudomonas aeruginosa ATCC 9027. Nature of the assay: MIC determination (broth micro-dilution). The format is cell-based. Particulars: ATCC9027. The procedure:
as §1

Assay [25] relates to Staphylococcus aureus ATCC 25213. The assay is described as follows: MIC determination (broth micro-dilution). Particulars: ATCC25213. The format is cell-based. The procedure:
as §1

Assay [26] deals with Staphylococcus aureus ATCC 25923. The assay is described as follows: MIC determination (broth micro-dilution). The format is cell-based. Particulars: ATCC25923. The method, then:
as §1

Assay [27] deals with Staphylococcus aureus ATCC 6538. The assay is described as follows: MIC determination (broth micro-dilution). The format is cell-based. To be noted: ATCC6538. The procedure:
as §1

Assay [28] in a line: Inhibition of linoleic acid peroxidation (LP), AAPH-initiated. On the set-up: tested at 100 µM. To be noted: 100 μΜ, 37 °C. The method, then: To initiate lipid peroxidation, the free radical AAPH was used[10]. The final solution in the UV cuvette consisted of 10 µl sodium linoleate solution (c = 16 mM) and 0.93 ml phosphate buffer pH 7.4 (c = 50 mM). Afterwards, 10 µl of the tested compound solution in DMSO (final concentration 0.1 mM) and 50 µl of AAPH solution (c = 40 mM) were added. The experiment was performed at 37 °C under air. Oxidation of linoleic acid sodium salt was monitored at 234 nm. The assay was repeated at least in triplicate and the standard deviation of absorbance was less than 10% of the mean. Trolox was used under the same experimental conditions as a reference compound.

The subject of assay [29] is Candida parapsylosis ATCC 22019. The assay is described as follows: Minimum biofilm eradication assay. The format is cell-based. The method, then:
as §2

Assay [30] concerns Enterococcus faecalis ATCC 29212. The assay is described as follows: Minimum biofilm eradication assay. The format is cell-based. The method, then: as §2
Assay [31] concerns Escherichia coli ATCC 10536. Nature of the assay: Minimum biofilm eradication assay. The format is cell-based. The procedure: as §2
The test system of assay [32] is Escherichia coli ATCC 8739. The assay is described as follows: Minimum biofilm eradication assay. The format is cell-based. The method, then: as §2
Assay [33] concerns Pseudomonas aeruginosa ATCC 27853. The assay is described as follows: Minimum biofilm eradication assay. The format is cell-based. The method, then: as §2
Assay [34] has as its system Pseudomonas aeruginosa ATCC 9027. Nature of the assay: Minimum biofilm eradication assay. The format is cell-based. The procedure: as §2
The test system of assay [35] is Staphylococcus aureus ATCC 25213. The assay is described as follows: Minimum biofilm eradication assay. The format is cell-based. The method, then: as §2
In assay [36] the test system is Staphylococcus aureus ATCC 6538. The assay is described as follows: Minimum biofilm eradication assay. The format is cell-based. The method, then: as §2
Another assay relates to E. coli (both strains). The assay is described as follows: Minimum biofilm eradication assay, E. coli both strains. The format is cell-based, Escherichia coli. The method, then: as §2, with “The MBEC value represents the lowest compound dilution at which microorganisms fail to grow.” left out

≈ marks a conversion by molar mass, not a printed value.

As to `C[C@@H]1[C@H](O)[C@@H](C)/C=C/C=C/C=C/C=C/C=C/C=C/C=C/[C@H](O[C@@H]2O[C@H](C)[C@@H](O)[C@H](N)[C@@H]2O)C[C@@H]2O[C@](O)(C[C@@H](O)C[C@@H](O)[C@H](O)CC[C@@H](O)C[C@@H](O)CC(=O)O[C@H]1C)C[C@H](O)[C@H]2C(=O)O` [Amph, amphotericin B, reference compound], the MIC (in [1]; in assay [2]; in assay [3]; against Candida kefyr ATCC 2512 [4]; in assay [5]; in assay [6]) was 0.5 µg/mL (≈ 0.541 µM) throughout. The molecule further yielded a minimal inhibitory concentration (MIC) in [7] of 0.5 µg/mL (≈ 0.541 µM). The minimal effective concentration in [8] stood at 25 µg/mL; in assay [9], 25 µg/mL; with Candida kefyr ATCC 2512 [10] it was 25 µg/mL; in [11], 50 µg/mL; in assay [12], 50 µg/mL.

As for `CC(Cc1ccc(O)c(O)c1)C(C)Cc1ccc(O)c(O)c1` (centres unmarked) [NDGA, nordihydroguaiaretic acid, reference compound], the “DPPH-reducing ability 20 min” value in assay [13] (20 min) came to 83.0 ± 1.0%. Besides, in assay [13] (60 min), the “DPPH-reducing ability 60 min” value was found to be 91.0 ± 1.7%.

With `CN(C)[C@@H]1C(O)=C(C(N)=O)C(=O)[C@@]2(O)C(O)=C3C(=O)c4c(O)cccc4[C@@](C)(O)[C@H]3C[C@@H]12` [TC, tetracycline, reference compound], the MIC in assay [14] came out at 0.31 µg/mL (≈ 0.698 µM); in [15], 0.31 µg/mL (≈ 0.698 µM); in assay [16], 3 µg/mL (≈ 6.75 µM); in assay [17], 6.13 µg/mL (≈ 13.8 µM); in [18] it was 0.31 µg/mL (≈ 0.698 µM); in [19], 0.63 µg/mL (≈ 1.42 µM). In addition, the MIC in assay [20] came to 2.5 µg/mL (≈ 5.63 µM); in [21], 2.5 µg/mL (≈ 5.63 µM); in assay [22], 0.63 µg/mL (≈ 1.42 µM); in assay [23], 3 µg/mL (≈ 6.75 µM); in [24], 3 µg/mL (≈ 6.75 µM); in assay [25], 0.16 µg/mL (≈ 0.36 µM). The MIC in [26] and in [27] was 0.31 µg/mL (≈ 0.698 µM) in each case.

Turning to `Cc1c(C)c2c(c(C)c1O)CCC(C)(C(=O)O)O2` (centres unmarked) [Trolox, 6-hydroxy-2,5,7,8-tetramethylchroman-2-carboxylic acid, reference compound], in [28], the “LP inhibition (%) ± SD” value was determined as 96 ± 2.0%.

With gentamycin [reference compound], the MBEC in [29] turned out to be 50 µg/mL; in [30] it was 50 µg/mL; in assay [31], 25 µg/mL; in assay [32], 25 µg/mL; in [33] it was 50 µg/mL; in assay [34], 50 µg/mL. Also, the MBEC in assay [35] amounted to 12.5 µg/mL; in [36], 12.5 µg/mL; with E. coli (both strains), 25 µg/mL.
